# Experimental data from BindingDB's records for doi:10.1021/acsmedchemlett.0c00626 (Pipeline Therapeutics, 2021).
# Molecular target: T1, Muscarinic acetylcholine receptor M1 (Homo sapiens, UniProt P11229)
# T1 sequence (P11229 whole entry): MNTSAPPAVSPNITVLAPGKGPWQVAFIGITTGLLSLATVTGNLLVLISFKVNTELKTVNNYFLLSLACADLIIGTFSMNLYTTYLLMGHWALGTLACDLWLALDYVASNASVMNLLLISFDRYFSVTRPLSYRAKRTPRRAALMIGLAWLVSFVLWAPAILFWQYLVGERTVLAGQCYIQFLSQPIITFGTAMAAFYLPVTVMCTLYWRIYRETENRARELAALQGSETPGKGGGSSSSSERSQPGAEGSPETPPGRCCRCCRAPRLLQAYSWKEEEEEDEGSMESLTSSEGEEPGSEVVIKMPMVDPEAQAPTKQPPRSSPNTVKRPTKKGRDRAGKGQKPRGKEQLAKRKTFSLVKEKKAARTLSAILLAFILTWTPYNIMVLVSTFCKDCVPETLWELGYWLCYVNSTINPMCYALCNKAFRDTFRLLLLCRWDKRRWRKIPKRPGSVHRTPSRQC
# Assay: Antagonist activity at human recombinant muscarinic receptor M1 expressed in CHO-K1 cells assessed as EC80 acetylcholine-induced calcium flux incubated for 30 mins
row,Compound,IC50 [nM]
1,N#Cc1ccc(N2C3CCC2CN(C(=O)CCS(=O)(=O)c2cccc4ncsc24)C3)nc1,1.6
2,N#Cc1cnccc1N1CCN(C(=O)CCCc2cccc3ncccc23)CC1,1250

# The next lines start with the values.
row,IC50 [nM],Compound
1,3980,Cc1cc(F)cnc1N1CCN(C(=O)COCc2cccc3ncsc23)[C@@H](C)C1
2,32,N#Cc1ccc(N2CC3CCC2CN3C(=O)CCS(=O)(=O)c2cccc3ncsc23)nc1 (stereo not given)
3,79.4,Cc1cc(F)cnc1N1CCN(C(=O)CCS(=O)(=O)c2cccc3ncsc23)[C@@H](C)C1
